Assay results: patent EP0099438A1, “2-Functionalised diaryl as-triazines useful in therapy” (PIERRE FABRE S.A., priority 1982, dated 1984)

Tests used:
[1] = Acute oral toxicity in mice (LD50, method of Miller and Tainter); settings: in vivo; mouse about 20 g, oral administration; read-out: DL50 voie orale
From the text: L'étude de la toxicité a été effectuée chez la souris conventionnelle pesant environ 20 grammes.
Les substances ont été administrées par voie orale. Les doses létales 50 sont exprimées en mg/kg et ont été calculées selon la méthode de MILLER et TAINTER, Proc. Scc. Exper. Biol. Med. 1944, 57, 261.

[2] = Qualitative solubility in water and solvents; format: physicochemical; settings: for Insoluble dans: media in which the compound is insoluble; for Soluble dans: media in which the compound is soluble
souris = assay: Phenylbenzoquinone (PBQ) writhing test (Siegmund), analgesic activity; format: in vivo; settings: po, 0.5 h; mouse, per os 30 minutes before intraperitoneal PBQ injection; read-out: DE50 (the source's name)
Experimental: L'activité sur le test des contorsions à la phényl benzoquinone (PBQ) selon SIEGMUND et Coll., J. Pharm. Exptl. Ther. 1957, 119, 453, a été déterminée après administration du produit per os; la dose est exprimée en mg/kg chez la souris 30 minutes avant l'injection intra-péritonéale de l'agent algogène.
Les résultats sont exprimés en pourcentage de variation du nombre de contorsions. Pour les molécules les plus actives nous avons déterminé la DE50, les résultats sont répertoriés dans le tableau suivant : […]

P.R.P. de LAPIN = assay: In vitro platelet anti-aggregation, arachidonic acid-induced, in rabbit PRP; format: cell-based; settings: dissolved in PEG 400, incubated 1 minute with PRP before arachidonic acid 2 x 10^-4M; ranking in words
From the text: Les produits sont dissous dans le PEG 400, puis additionnés au P.R.P. de LAPIN puis incubés une minute avant l'addition d'agent agrégant (acide arachidonique 2 x 10^-4M). Le produit le plus actif est le ST 938.

Compound | LD50 [1] [mg/kg] | Insoluble dans [2] | Soluble dans [2] | ED50 (souris) [mg/kg] | Propriétés antiagrégantes (in vitro) (P.R.P. de LAPIN)
COc1ccc(-c2nc(=O)n(CCN3CCOCC3)nc2-c2ccc(OC)cc2)cc1 [ST 728, Oxo-3 morpholino éthyl-2 di(paraméthoxyphényl)-5-6 as triazine] | > 1000 | l'eau, les bases diluées et l'éther | les acides, les alcools, le benzène, le chlorure de méthylène et le chloroforme |  | 
COc1ccc(-c2nc(=O)n(CCO)nc2-c2ccc(OC)cc2)cc1 [ST 791, Oxo-3 hydroxyéthyl-2 di(paraméthoxyphényl)-5-6 as triazine] | > 1000 | l'eau, les bases et les acides dilués et l'éther | les alcools, le benzène, le chlorure de méthylène et le chloroforme | 9 | 
CN(C)c1ccc(-c2nc(=O)n(CCCCl)nc2-c2ccc(N(C)C)cc2)cc1 [ST 882, Oxo-3 γ-chloropropyl-2 di(paradiméthyiaminophényl) 5-6 as triazine] | > 1000 | l'eau et les bases diluées, et l'éther | les acides dilués aqueux, les alcools, le benzène, le chlorure de méthylène et le chloroforme | 4.6 | 
CN(C)c1ccc(-c2nc(=O)n(CCOC(=O)c3cccnc3)nc2-c2ccc(N(C)C)cc2)cc1 [ST 883, Oxo-3 nicotinoyloxyéthyl-2 di(paradiméthylaminophényl) 5-6 as triazine] | > 1000 | l'eau et les bases diluées, l'éther | les acides dilués, les alcools, le benzène, le chloroforme et le chlorure de méthylène | 3.1 | 
CN(C)c1ccc(-c2nc(=O)n(CC(N)=O)nc2-c2ccc(N(C)C)cc2)cc1 [ST 812, Oxo-3 acétamido-2 di(paradiméthylaminophényl)-5-6 as triazine] | > 1000 | l'eau, les bases diluées, les alcools, le benzène et l'éther | les acides dilués et le chlorure de méthylène | 12 | 
CN(C)c1ccc(-c2nc(=O)n(CC(O)CO)nc2-c2ccc(N(C)C)cc2)cc1 (stereo not shown) [ST 886] | > 1000 | l'eau et les bases diluées, l'éther | les acides dilués aqueux, les alcools, le benzène, le chlorure de méthylène et le chloroforme | 5.6 | 
CCOC(=O)C(C(=O)OCC)n1nc(-c2ccc(OC)cc2)c(-c2ccc(OC)cc2)nc1=O [ST 824, Oxo-3 diéthylmalonyl-2 di(paraméthoxyphényl)-5-6 as triazine] | > 1000 | l'eau, les bases et les acides dilués et l'éther | les alcools, le benzène, le chlorure de méthylène et le chloroforme |  | 
COc1ccc(-c2nc(=O)n(CCCN3CCN(C)CC3)nc2-c2ccc(OC)cc2)cc1 [ST 881, Dichlorhydratede l'oxo-3 N méthyl piperazinyl-3' propyl-2 di(paraméthoxyphényl)-5-6 as triazine] | > 1000 | le benzène, le chlorure de méthylène et le chloroforme | l'eau, les acides dilués et les alcools | 6.7 | 
CN(C)c1ccc(-c2nc(=O)n(CCO)nc2-c2ccc(N(C)C)cc2)cc1 [ST 817, Oxo-3 hydroxyéthyl-2 di(paradimétnylaminophényl)-5-6 as triazine] | > 1000 | les bases diluées aqueuses, l'eau, le benzène et l'éther | les acides dilués, les alcools, le chlorure de méthylène et le chloroforme | 1.5 | 
C=COCCn1nc(-c2ccc(OC)cc2)c(-c2ccc(OC)cc2)nc1=O [ST 777, Oxo-3 vinyloxyéthyl-2 di(paraméthoxyphényl)-5-6 as triazine] | > 1000 | l'eau, les bases et les acides dilués et l'éther | les alcools, le benzène, le chlorure de méthylène et le chloroforme | 10 | 
C=CCNCCCn1nc(-c2ccc(OC)cc2)c(-c2ccc(OC)cc2)nc1=O [ST 876, Oxalatede l'oxo-3 γallylamino propyl-2 di(paraméthoxyphényl)-5-6 as triazine] | 750 | le benzène, l'éther et le chloroforme | l'eau, les alcools, et le chlorure de méthylène |  | 
COc1ccc(-c2nc(=O)n(C(C)CN(C)C)nc2-c2ccc(OC)cc2)cc1 (stereo not shown) [ST 766] | 750 | l'eau, les bases diluées, le benzène et l'éther | les acides dilués, les alcools, le chlorure de méthylène et le chloroforme | 11 | 
COc1ccc(-c2nc(=O)n(CCCCl)nc2-c2ccc(OC)cc2)cc1 [ST 938, Oxo-3 chloropropyl-2 di(paraméthoxyphényl)-5-6 as triazine] | ≥ 1000 | l'eau, les bases et les acides dilués et l'éther | les alcools, le benzène, le chlorure de méthylène et le chloroforme |  | le plus actif
